Experiments:
[1] = ABTS radical scavenging ability; conditions: sample concentration 20 μM
Protocol: (§1) Scavenging abilities of hydroxyl and ABTS radicals, and ORAC were measured as described previously with some modifications. A 759S UV/Vis spectrophotometer (Lengguang Technology, Shanghai, China) was used to determine the absorbance of HO· at 532 nm and ABTS^·+ at 734 nm. ORAC analysis was conducted using a Fluoroskan Ascent microplate reader (Thermo Electron Corp., Waltham, MA, USA) at excitation and emission wavelengths of 485 and 530 nm, respectively. Trolox or vitamin C (VC) was used as a positive control, the sample concentration was 20 μM, and all experiments were repeated independently in triplicate.

[2] = Hydroxyl radical scavenging ability; conditions: sample concentration 20 μM
Protocol: as §1

[3] = ORAC assay (fluorescence quenching induced by AAPH); conditions: 20 μM
Protocol: as §1

[4] = 1-octanol/water partition coefficient (logP); assay type: physicochemical
Protocol: The 1-octanol/water partition coefficients of troxerutin and its propionyl derivatives were measured as previously described. Each compound was fully mixed with 1-octanol and then vigorously mixed with an equal amount of water. After equilibration for 30 min, the concentrations of compound in each layer were respectively measured by HPLC. The results are shown as common logarithms (logP).

erythrocytes = experiment: Erythrocyte hemolysis induced by AAPH; assay type: cell-based, sheep; conditions: 20 μM sample, 200 mM AAPH, 2.5 h, 37 °C
Protocol: The hemolysis study was performed according to the method of Zhang et al. with some modifications. Erythrocytes from healthy sheep were centrifuged at 770×g for 10 min at 4 °C and washed three times with PBS. Equal amounts of erythrocyte suspension (20%, v/v) and sample solution (20 μM) were mixed and the mixture was incubated for 20 min at 37 °C. After adding 200 mM AAPH, incubation was continued for a further 2.5 h at the same temperature. The final reaction system was diluted with 8 mL PBS and then centrifuged at 1200×g for 10 min at 4 °C. The degree of hemolysis in the supernatant was determined by measuring the absorbance at 540 nm. To obtain the complete hemolysate, ultrapure water was added to the mixture. PBS was used as a negative control and Trolox was used as a positive control. These values were measured using a 756S UV/Vis spectrophotometer (Lengguang Technology). The treated supernatant was collected to measure the level of MDA. All experiments were performed independently in triplicate. The hemolysis rate was calculated using the equation: Hemolysis rate%=OD540of sample/OD540of complete hemolysis×100%.

[5] = test system: erythrocyte lysate membrane lipid peroxidation; experiment: Lipid peroxidation (MDA release) after complete hemolysis; assay type: cell-based, sheep; conditions: erythrocytes completely hemolysed in cold ultrapure water, lysate treated with AAPH
[6] = Transport experiment in Caco-2 monolayers; assay type: in vitro ADME, human; conditions: human, Caco-2
Protocol: (§2) The absorptions of troxerutin and its acylated derivatives was measured as described by Chen et al.. Caco-2 cells were cultured in DMEM supplemented with 10% FBS, 100 μg/mL streptomycin, and 100 U/mL penicillin at 37 °C in an atmosphere of 5% CO2 and the medium was changed every 2 days. Caco-2 cells used in this study were seeded onto 12-well translucent Transwell inserts (0.4 μm pore size, Corning Costar, Corning, NY, USA) at a density of 2.5 × 10^5 cells/mL and grown for 3 weeks. Transepithelial electrical resistance (TEER) and lucifer yellow were measured to detect the integrity of Caco-2 monolayers. TEER values were measured by using a voltammeter (Millicell ERS, Millipore, Bedford, MA, USA) and the amount of lucifer yellow transported to the basolateral side in a 2.5-h period was quantified by using a fluorospectrometer (Fluoroskan Ascent FL, Thermo Labsystems, Helsinki, Finland) at an excitation wavelength of 425 nm and emission wavelength of 530 nm. ALP activity was measured to detect the differentiation degree of Caco-2 monolayers by using an ALP Assay Kit.
(§3) Samples (100 μM, 0.5 mL) were placed on the apical (AP) side along with 1.5 mL of HBSS added to the basolateral (BL) side. […] The volume removed from the recipient side was replaced with fresh HBSS at 30, 60, 90, 120, and 150 min. The concentrations on the BL side were measured by HPLC. The apparent permeability coefficients (Papp, cm/s) were calculated according to the equation: Papp=dQ/dt×V/A×C0, where the dQ/dt is the permeability rate (μM/s) calculated from the slope of the amount of tested compounds transported versus time, V is the volume of the basolateral chamber (mL), A is the surface area of the inset (cm^2), and C0 is the initial concentration (μM) of the samples.

Caco-2 monolayers = experiment: Transport experiment in Caco-2 monolayers; assay type: in vitro ADME, human; conditions: Caco-2 monolayers
Protocol: as §2, §3

[7] = after oral consumption; cited from earlier work

| Structure (SMILES) | Free radical scavenging ability ABTS·+ [1] | Free radical scavenging ability HO· [2] | Capacity to inhibit fluorescence quenching (ORAC), rank order [3] | logP at 30 min [4] | Inhibition effects on AAPH-induced erythrocyte hemolysis, rank order (erythrocytes) | Inhibition of AAPH-induced erythrocyte hemolysis (erythrocytes) | Inhibition ability for membrane lipid peroxidation (MDA release), rank order [5] | Papp A→B at 150 min, 100 μM [6] [×10⁻⁶ cm/s] | Papp B→A at 150 min, 100 μM [6] [×10⁻⁶ cm/s] | Papp at 150 min, 100 μM [6] [×10⁻⁶ cm/s] | UR (uptake ratio = Papp AP–BL/Papp BL–AP) (Caco-2 monolayers) | Bioavailability [7] [%] |
| --- | --- | --- | --- | --- | --- | --- | --- | --- | --- | --- | --- | --- |
| O=C1O[C@H]([C@@H](O)CO)C(O)=C1O [VC, vitamin C, reference compound] | 100 ± 0.02 a % | 99.3 ± 0.05 a % | – | – | – | – | – | – | – | – | – | – |
| CCC(=O)OCCOc1cc(O)c2c(=O)c(OC3OC(COC4OC(C)C(O)C(O)C4O)C(O)C(O)C3O)c(-c3ccc(OCCOC(=O)CC)c(OCCO)c3)oc2c1 (centres unmarked) [TDE] | 81.5 ± 2.1 c % | 89.7 ± 1.8 c % | troxerutin ≈ TME > TDE | 1.51 ± 0.05 | troxerutin < TME ≈ TDE | effectively inhibited | troxerutin ≈ TME > TDE | 1.54 ± 0.17 | 1.53 ± 0.21 | – | – | – |
| C[C@@H]1O[C@@H](OC[C@H]2O[C@@H](Oc3c(-c4ccc(OCCO)c(OCCO)c4)oc4cc(OCCO)cc(O)c4c3=O)[C@H](O)[C@@H](O)[C@@H]2O)[C@H](O)[C@H](O)[C@H]1O [Troxerutin, troxerutin] | 96.8 ± 4.1 ab % | 97.1 ± 2.7 ab % | troxerutin ≈ TME > TDE | – | troxerutin < TME ≈ TDE | effectively inhibited | troxerutin ≈ TME > TDE | 0.34 ± 0.05 | 0.35 ± 0.03 | – | – | – |
| C[C@@H]1O[C@@H](OC[C@H]2O[C@@H](Oc3c(-c4ccc(O)c(O)c4)oc4cc(O)cc(O)c4c3=O)[C@H](O)[C@@H](O)[C@@H]2O)[C@H](O)[C@H](O)[C@H]1O [Rutin, rutin] | – | – | – | – | – | – | – | 0.06 ± 0.01 | 0.06 ± 0.02 | 0.06 | 1.00 ± 0.05 | – |
| CC(C)NCC(O)COc1cccc2ccccc12 (centres unmarked) [Propranolol] | – | – | – | – | – | – | – | 48.9 ± 3.3 | 44 ± 2.98 | – | – | > 90 |
| CCC(=O)OCCOc1ccc(-c2oc3cc(OCCO)cc(O)c3c(=O)c2OC2OC(COC3OC(C)C(O)C(O)C3O)C(O)C(O)C2O)cc1OCCO (centres unmarked) [TME] | 90.4 ± 3.0 b % | 95.2 ± 3.5 b % | troxerutin ≈ TME > TDE | < 0 | troxerutin < TME ≈ TDE | effectively inhibited | troxerutin ≈ TME > TDE | 0.99 ± 0.12 | 1.05 ± 0.12 | – | – | – |
